# Reference: ChEMBL document CHEMBL1130744, “Potent and selective inhibitors of the proteasome: dipeptidyl boronic acids” (Bioorg Med Chem Lett, 1998)
# Non-standard residues stand in square brackets, D forms with d. Residues, ends and D or L forms follow the SMILES beside them. *: point of attachment. 1Nal = N[C@@H](Cc1cccc2ccccc12)C(=O)O; 2Nal = N[C@@H](Cc1ccc2ccccc2c1)C(=O)O; Cbz = O=C(OCc1ccccc1)*; CF3 = FC(F)(F)*; CH2Cl = ClC*
# Target: Cathepsin B (Homo sapiens, UniProt P07858)
# Assay: Inhibitory activity against Cathepsin B
row,Ki [nM],SMILES
1,6.1,CC(C)C[C@H](NC(=O)[C@H](CC(C)C)NC(=O)[C@H](CC(C)C)NC(=O)OCc1ccccc1)B(O)O

# Target: T1, Cathepsin G (Homo sapiens, UniProt P08311)
# T1 sequence (P08311 whole entry): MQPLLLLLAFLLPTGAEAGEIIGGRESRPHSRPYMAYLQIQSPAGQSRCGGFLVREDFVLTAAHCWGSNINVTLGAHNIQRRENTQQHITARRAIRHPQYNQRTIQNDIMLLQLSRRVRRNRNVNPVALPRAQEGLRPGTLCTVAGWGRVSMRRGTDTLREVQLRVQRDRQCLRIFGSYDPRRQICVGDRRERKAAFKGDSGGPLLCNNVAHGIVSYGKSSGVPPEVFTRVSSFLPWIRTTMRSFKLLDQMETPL
# Assay: Inhibitory activity against human cathepsin G
row,Ki [nM],SMILES
1,630,CC(C)C[C@H](NC(=O)[C@H](Cc1ccccc1)NC(=O)c1cnccn1)B(O)O [BORTEZOMIB]

# Target: Chymotrypsinogen B (Homo sapiens, UniProt P17538)
# Sequence (P17538 34-164 limits assumed, other chains not shown): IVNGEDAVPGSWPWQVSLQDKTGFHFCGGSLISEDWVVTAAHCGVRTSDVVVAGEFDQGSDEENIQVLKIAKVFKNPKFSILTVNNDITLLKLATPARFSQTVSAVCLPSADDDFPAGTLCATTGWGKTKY
# Sequence (P17538 167-263 limits assumed, other chains not shown): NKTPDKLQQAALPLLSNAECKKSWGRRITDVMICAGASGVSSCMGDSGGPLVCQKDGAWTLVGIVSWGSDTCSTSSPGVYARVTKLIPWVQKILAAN
# Assay: Inhibitory activity against human Chymotrypsinogen
row,Ki [nM],SMILES
1,320,CC(C)C[C@H](NC(=O)[C@H](Cc1ccccc1)NC(=O)c1cnccn1)B(O)O [BORTEZOMIB]

# Target: T2, Neutrophil elastase (Homo sapiens, UniProt P08246)
# T2 sequence (P08246 whole entry): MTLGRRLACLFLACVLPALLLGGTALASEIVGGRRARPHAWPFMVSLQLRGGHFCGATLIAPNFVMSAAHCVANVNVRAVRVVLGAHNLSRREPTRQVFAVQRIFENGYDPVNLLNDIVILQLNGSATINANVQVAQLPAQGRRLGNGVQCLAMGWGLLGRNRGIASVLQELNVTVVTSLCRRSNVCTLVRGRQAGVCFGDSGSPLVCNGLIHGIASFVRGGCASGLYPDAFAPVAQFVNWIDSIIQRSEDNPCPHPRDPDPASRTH
# Assay: Inhibitory activity against human leukocyte elastase
row,Ki [nM],SMILES
1,2300,CC(C)C[C@H](NC(=O)[C@H](Cc1ccccc1)NC(=O)c1cnccn1)B(O)O [BORTEZOMIB]

# Target: Proteasome
# Assay: Inhibitory activity against 20S Proteasome
# Format: subcellular, Oryctolagus cuniculus
row,SMILES,Ki [nM]
1,CC(C)C[C@@H](C=O)NC(=O)[C@H](Cc1ccccc1)NC(=O)c1cnccn1,1600
2,CC(C)C[C@H](NC(=O)OCc1ccccc1)C(=O)N[C@@H](CC(C)C)C(=O)N[C@@H](CC(C)C)C(=O)c1nc2ccccc2o1,214
3,CC(C)C[C@H](NC(=O)[C@H](Cc1cccc2ccccc12)NC(=O)c1cnccn1)B(O)O,0.18
4,CC(C)C[C@@H](C=O)NC(=O)[C@H](CC(C)C)NC(=O)[C@H](Cc1ccc2ccccc2c1)NC(=O)OCc1ccccc1 (Cbz-[2Nal]-Leu-Leu-aldehyde),0.24
5,CC(C)C[C@H](NC(=O)OCc1ccccc1)C(=O)N[C@@H](CC(C)C)C(=O)N[C@H](C=O)Cc1ccc2ccccc2c1 (Cbz-Leu-Leu-[2Nal]-aldehyde),25
6,CC(C)C[C@H](NC(=O)OCc1ccccc1)C(=O)N[C@@H](CC(C)C)C(=O)NCC=O (Cbz-Leu-Leu-Gly-aldehyde),3800
7,CC(C)C[C@@H](C=O)NC(=O)[C@H](Cc1cccc2ccccc12)NC(=O)c1cnccn1,97
8,CC(C)C[C@@H](C=O)NC(=O)[C@H](Cc1cccc2ccccc12)NC(=O)[C@H](Cc1ccc2ccccc2c1)NC(=O)OCc1ccccc1 (Cbz-[2Nal]-[1Nal]-Leu-aldehyde),0.015
9,CCOC(=O)C(=O)C(=O)[C@H](CC(C)C)NC(=O)[C@H](CC(C)C)NC(=O)[C@H](CC(C)C)NC(=O)OCc1ccccc1,45

# The remaining lines, values ahead:
row,Ki [nM],SMILES
1,22000,CC(C)C[C@H](NC(=O)[C@H](CC(C)C)NC(=O)[C@H](CC(C)C)NC(=O)OCc1ccccc1)C(=O)CCl (Cbz-Leu-Leu-Leu-CH2Cl)
2,210,CC(C)C[C@H](NC(=O)OCc1ccccc1)C(=O)N[C@@H](CC(C)C)C(=O)N[C@@H](C)C=O (Cbz-Leu-Leu-Ala-aldehyde)
3,4,CC(C)C[C@@H](C=O)NC(=O)[C@H](CC(C)C)NC(=O)[C@H](CC(C)C)NC(=O)OCc1ccccc1 [MG-132] (Cbz-Leu-Leu-Leu-aldehyde)
4,1400,CC(C)C[C@H](NC(=O)OCc1ccccc1)C(=O)N[C@@H](CC(C)C)C(=O)N[C@@H](CC(C)C)C(=O)C(F)(F)F (Cbz-Leu-Leu-Leu-CF3)
5,130,CC[C@@H](C)[C@@H](C=O)NC(=O)[C@H](CC(C)C)NC(=O)[C@H](CC(C)C)NC(=O)OCc1ccccc1

# Target: Prothrombin (Homo sapiens, UniProt P00734)
# Assay: Inhibitory activity against thrombin
row,Ki [nM],SMILES
1,13000,CC(C)C[C@H](NC(=O)[C@H](Cc1ccccc1)NC(=O)c1cnccn1)B(O)O [BORTEZOMIB]
